Data from the supplement of paper PMC10307832.

Assays:
Assay in all cases: relative viability (nuclei count vs DMSO), 5 days (fraction); higher = more cells survive
[1] = compound: CN(C)C/C=C/C(=O)Nc1cc2c(Nc3ccc(F)c(Cl)c3)ncnc2cc1O[C@H]1CCOC1 [Afatinib] + O=C(CCCCCCC(=O)Nc1ccccc1)NO [Vorinostat] (partner 1 µM)
How it was run: (§1)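 Medians of duplicate plates are given as relative viability. That measure is the nuclei count in treated wells divided by the count in vehicle wells. Counts were taken on 4× images of lung cancer cell lines in 1536-well plates, 5 days after pin-tool dosing the day after seeding with one drug alone or a fixed anchor-drug dose plus five library-drug doses (not always all listed) in √10 steps.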

[2] = compound: CN(C)C/C=C/C(=O)Nc1cc2c(Nc3ccc(F)c(Cl)c3)ncnc2cc1O[C@H]1CCOC1 [Afatinib] + CS(=O)(=O)N1CCN(Cc2cc3nc(-c4cccc5[nH]ncc45)nc(N4CCOCC4)c3s2)CC1 [Pictilisib] (partner 1 µM)
How it was run: as §1

[3] = compound: CN(C)C/C=C/C(=O)Nc1cc2c(Nc3ccc(F)c(Cl)c3)ncnc2cc1O[C@H]1CCOC1 [Afatinib] + C[C@@H](Oc1cc(-c2cnn(C3CCNCC3)c2)cnc1N)c1c(Cl)ccc(F)c1Cl [Crizotinib] (partner 1 µM)
How it was run: as §1

[4] = compound: CN(C)C/C=C/C(=O)Nc1cc2c(Nc3ccc(F)c(Cl)c3)ncnc2cc1O[C@H]1CCOC1 [Afatinib] + Cc1nc(Nc2ncc(C(=O)Nc3c(C)cccc3Cl)s2)cc(N2CCN(CCO)CC2)n1 [Dasatinib] (partner 0.075 µM)
How it was run: as §1

Cell Line	relative viability ([1]; first compound 0.005 µM)	relative viability ([1]; first compound 0.01581 µM)	relative viability ([1]; first compound 0.05 µM)	relative viability ([1]; first compound 0.1581 µM)	relative viability ([1]; first compound 0.5 µM)	relative viability ([2]; first compound 0.005 µM)	relative viability ([2]; first compound 0.01581 µM)	relative viability ([2]; first compound 0.05 µM)	relative viability ([2]; first compound 0.1581 µM)	relative viability ([2]; first compound 0.5 µM)	relative viability ([3]; first compound 0.005 µM)	relative viability ([3]; first compound 0.01581 µM)	relative viability ([3]; first compound 0.05 µM)	relative viability ([3]; first compound 0.1581 µM)	relative viability ([3]; first compound 0.5 µM)	relative viability ([4]; first compound 0.005 µM)	relative viability ([4]; first compound 0.01581 µM)	relative viability ([4]; first compound 0.05 µM)	relative viability ([4]; first compound 0.1581 µM)	relative viability ([4]; first compound 0.5 µM)
201T	0.936	0.902	0.922	0.783	0.957	0.682	0.658	0.662	0.659	0.698	0.981	0.863	0.959	0.958	1	0.589	0.517	0.581	0.56	0.544
A549						0.499	0.416	0.478	0.389	0.442	0.995	0.655	0.712	0.695	0.796					
A-427	0.929	0.89	0.848	0.833	0.908	0.729	0.684	0.587	0.774	0.658	0.999	0.963	1.04	0.845	0.855	0.661	0.741	0.631	0.669	0.72
ABC-1	1.47		1.13	1.24	1.08	0.816	0.52	0.679	0.578	0.762	1.29	0.98	1.3	0.885	1.13	0.559	0.58	0.621	0.472	0.516
BEN	0.588	0.564	0.559	0.557	0.574	0.563	0.532	0.565	0.601	0.589	0.929	0.941	1.02	0.908	0.916	0.337	0.283	0.323	0.336	0.313
CAL-12T	0.727	0.647	0.552	0.364	0.396	0.389	0.393	0.347	0.447	0.27	1.06	0.629	0.64		0.357	0.261	0.236	0.193	0.189	0.194
COR-L23	0.682	0.443	0.484	0.39	0.485	0.689	0.762	0.854	0.955	0.853	0.803	0.583	0.634	0.603	0.75	0.575	0.484	0.536	0.426	0.535
COR-L 105	0.667	0.386	0.47	0.336	0.386	0.359	0.355	0.302	0.252	0.35	0.618	0.285	0.304	0.221	0.216	0.206	0.119	0.142	0.137	0.148
Calu-6						0.999	0.941	1.01	0.964	0.989	0.861	0.654	0.869	0.8	0.755					
ChaGo-K-1	0.81	0.777	0.789	0.754	0.695	0.893	0.45	0.757	0.583	0.88	1.27	1.14	1.17	1.16	1.17	0.631	0.52	0.535	0.65	0.541
EKVX	0.588	0.385	0.284	0.31	0.276	0.391	0.346	0.203	0.118	0.104	0.892	0.708	0.551	0.268	0.159	0.334	0.429	0.339	0.319	0.231
EMC-BAC-2	0.558	0.236	0.596	0.465	0.438	0.516	0.531	0.544	0.529	0.496	0.816	0.731	0.698	0.693	0.654	0.314	0.302	0.33	0.315	0.296
EPLC-272H	0.402	0.387	0.347	0.448	0.273	0.342	0.301	0.297	0.324	0.348	0.698	0.72	0.842	0.739	0.575	0.326	0.341	0.262	0.253	0.244
H3255	0.277	0.207	0.229	0.185	0.952	0.173	0.118	0.132	0.11	0.104	0.225	0.191	0.265	0.166	0.226	0.202	0.195	0.264	0.326	0.242
HARA	0.586	0.543		0.458	0.58	0.429	0.331	0.16	0.206	0.195	0.884	1.04	0.763	0.494	0.783	0.179	0.182	0.217	0.178	0.209
HCC-15	0.904	0.92	0.816	0.785	0.887	0.806	0.72	0.647	0.714	0.66	0.842	0.904	0.804	0.837	0.866	0.609	0.646	0.617	0.609	0.642
HCC-44	1.18	1.09	1.18	1.1	1.05	0.619	0.619	0.638	0.514	0.533	0.902	0.866	0.786	0.782	0.847					
